Experimental data taken from patent publication US8778974B2, “Trisubstituted 1,2,4 triazoles” (Janssen Pharmaceutica NV, priority 2008, dated 2014).

Assays:
[1] = target: T1, hα7-wt nAChR-expressing GH4Cl cells (Homo sapiens, UniProt P36544); assay: Patch-clamp current recording (whole-cell), potentiation of choline 1 mM response, PAM type; format: cell-based; set-up: key to Pam type: Type 0 compounds minimally enhance the effect size of the current elicited by 1 mM choline.; Type 1 compounds enhance the effect size of the current elicited by 1 mM choline but minimally alter the kinetics of the receptor.; Type 2 compounds enhance the effect size of the current elicited by 1 mM choline while reducing the rate and/or the extent of desensitization.; Type 3 compounds enhance the effect size of the current elicited by 1 mM choline. When tested at higher concentrations up to 10 μM they completely inhibit desensitization, in particular a 1 mM choline application of 250 milliseconds.; Type 4 compounds allow for an initial desensitization of the receptor followed by a re-opening of the receptor during agonist application; conditions: for EC50: according to Ex. D.2, "<5" = no top plateau reached at maximal concentration, read-out: Potency (pEC50) (converted); for Pam type: patch-clamp current recording, 1 mM choline
T1 construct: expressed in transfected cells
Method in brief: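 PAM type assigned qualitatively from current size and desensitization rate/extent when compound is applied simultaneously with 1 mM choline. Recordings: hα7-wt nAChR GH4Cl cells, whole-cell patch clamp, holding −70 mV, series resistance <15 MΩ with ≥60% compensation, pH 7.3 HEPES solutions, solution switching <100 ms.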

[2] = target: T2, hα7-wt nAChR-expressing cells (Homo sapiens, UniProt P36544); assay: Ca2+ flux imaging (FDSS) (Protocol B), PAM activity with choline 100 μM; format: cell-based; conditions: according to Ex. D.1b; read-out: % Efficacy
T2 construct: expressed in transfected cells; host or cells: hα7-wt nAChR-expressing cells
Procedure: Ca^2+ Flux Imaging (FDSS) (Protocol B)
• a) Assay buffer • Hanks buffered saline solution (HBSS, Invitrogen, Belgium), supplemented with 10 mM HEPES (Invitrogen, Belgium), CaCl2 to a final concentration of 5 mM, 0.1% Bovine serum albumin (Sigma-Aldrich NV, Belgium). • b) Calcium-sensitive dye—Fluo-4AM • Fluo-4AM (Molecular Probes, USA) was dissolved in DMSO containing 10% Pluronic acid (Molecular Probes, USA) to give a stock solution which was diluted in assay buffer supplemented with 5 mM probenicid (Sigma, Al-drich NV, Belgium) to give a final concentration of 2 μM. • c) 384-well plates • Black 384 well plate black/clear plates, PDL pre-coated (Corning, Incorporated, USA) • d) Calcium flux measurement • A Functional drug screening system (FDSS, Hamamatsu) was used to measure intracellular free-calcium flux signals. Method
Monolayers of hα7-wt nAChR-expressing cells were grown in multi-well plates, in particular black-sided, transparent bottomed 384 well plates coated with poly-D-lysine for 24 hours prior to loading with a fluorescent calcium indicator, in a particular embodiment loading with fluo-4AM for up to 120 minutes.
PAM activity was detected in real time by applying the compounds to be tested to the loaded cells along with a α7 nicotinic receptor agonist during constant monitoring of cellular fluorescence in a FDSS. Compounds giving peak fluorescent responses greater than the response due to agonist alone, were considered to be α7 nAChR PAM's. In a particular embodiment, the α7 nicotinic receptor agonist was choline, a more particular embodiment choline applied at a sub-maximal concentration of 100 μM. In a further setting of the present invention the compounds to be tested were applied prior to the α7 nicotinic receptor agonist, in a particular embodiment up to 10 minutes prior to the agonist.
A control response to choline was calculated on each plate from the difference in peak in fluorescence in wells receiving either choline or assay buffer alone. Compounds of the present invention were tested at a concentration range from 0.01 μM to 30 μM. Compounds were considered to have an interesting activity when they potentiated the choline signal at least with 500% when tested at a concentration of 30 μM (the efficacy of 100 μM choline was defined as 100% in the absence of a PAM). The compounds also have a potentiating effect on the response to choline when measured by whole-cell patch clamp electrophysiology in GH4Cl cells stably over-expressing the human wild-type α7 receptor.

T1 sequence (P36544 23-502): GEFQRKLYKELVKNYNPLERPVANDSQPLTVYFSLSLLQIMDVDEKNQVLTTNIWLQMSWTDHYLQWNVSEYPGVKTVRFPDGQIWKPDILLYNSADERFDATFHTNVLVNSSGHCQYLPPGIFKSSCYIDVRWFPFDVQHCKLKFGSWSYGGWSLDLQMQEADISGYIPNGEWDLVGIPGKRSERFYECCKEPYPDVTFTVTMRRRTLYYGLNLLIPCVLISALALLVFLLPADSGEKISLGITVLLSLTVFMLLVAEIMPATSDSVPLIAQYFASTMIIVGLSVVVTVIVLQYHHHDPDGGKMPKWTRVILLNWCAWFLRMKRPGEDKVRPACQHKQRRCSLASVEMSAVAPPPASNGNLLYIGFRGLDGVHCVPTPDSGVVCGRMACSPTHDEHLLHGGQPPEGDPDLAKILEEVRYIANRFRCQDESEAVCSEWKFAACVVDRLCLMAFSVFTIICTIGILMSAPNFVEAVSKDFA
T2 sequence (P36544 23-502): as above

| SMILES | EC50 [1] [µM] | Emax [2] [%] | Pam type [1] | melting point [°C] |
| --- | --- | --- | --- | --- |
| Cc1nccc(-n2nc(Nc3cccc(Cl)c3F)nc2CC(=O)NCC2CC2)c1C [E193] | ~3.02 | 327 |  |  |
| Cc1cc(-n2nc(Nc3cccc(Cl)c3F)nc2CC(=O)NC2CC2)c(C)cn1 [E157] | 3.8 | 492 | 2 | 192.6 |
| CNC(=O)Cc1nc(Nc2cc(F)cc(C(F)(F)F)c2)nn1-c1cc(C)nc(C)c1 [E251] | 0.263 | 658 |  | 286.2 |
| CCNC(=O)Cc1nc(Nc2cc(Cl)cc(OC)c2)nn1-c1cc(C)nc(C)c1 [E219] | 0.269 | 702 | 4 | 254 |
| Cc1cc(-n2nc(Nc3ccc4c(c3)OC(F)(F)O4)nc2CCC(=O)N(C)C)cc(C)n1 [E235, 3-[(2,2-difluoro-1,3-benzodioxol-5-yl)amino]-1-(2,6-dimethyl-4-pyridinyl)-N,N-dimethyl-1H-1,2,4-triazole-5-propanamide] | 0.0288 | 419 |  | 178 |
| Cc1cc(-n2nc(Nc3ccc(F)c(F)c3)nc2CCC(=O)N(C)C)cc(C)n1 [E234, 3-[(3,4-difluorophenyl)amino]-1-(2,6-dimethyl-4-pyridinyl)-N,N-dimethyl-1H-1,2,4-triazole-5-propanamide] | 0.0617 | 459 |  | 200.2 |
| CC[C@@H](O)Cc1nc(Nc2cc(OC)cc(C(F)(F)F)c2)nn1-c1cc(C)nc(C)c1 [E128] | 0.126 | 994 | 4 | 138.8 |
| COc1ccc(-n2nc(Nc3cccc(OC(F)(F)F)c3)nc2CCC(=O)N(C)C)cc1 [E183] | 0.0269 | 718 | 1 |  |
| Cc1cc(-n2nc(Nc3cc(F)c(F)c(F)c3)nc2CC(=O)NC2CCC2)cc(C)n1 [E242] | 0.0955 | 676 |  | 291.9 |
| CNC(=O)CCc1nc(Nc2ccc(F)c(F)c2)nn1-c1cccc(Cl)c1 [E39] | 2.57 | 674 |  |  |
| CNC(=O)Cc1nc(Nc2cc(F)cc(Cl)c2)nn1-c1cc(C)nc(C)c1 [E245] | 0.398 | 614 |  | 280.7 |
| Cc1cc(-n2nc(Nc3cccc(Cl)c3F)nc2CC(=O)NCC2CC2)c(C)cn1 [E158] | 1.38 | 328 | 1 |  |
| Cc1cc(-n2nc(Nc3cccc(Cl)c3F)nc2CC(=O)NC2CCC2)c(C)cn1 [E159] | 1.74 | 592 | 1 |  |
| Cc1cc(-n2nc(Nc3cccc(Cl)c3F)nc2CCC(=O)N(C)C)cc(C)n1 [E265] | 0.0372 | 616 |  |  |
| Cc1cc(-n2nc(Nc3ccc(F)c(C(F)(F)F)c3)nc2CCCF)ccn1 [E8, 5-(3-Fluoropropyl)-N-[4-fluoro-3-(trifluoromethyl)phenyl]-1-(2-methyl-4-pyridinyl)-1H-1,2,4-triazol-3-amine] | 0.513 |  | 0 | 191.5 |
| CC[C@H](O)Cc1nc(Nc2ccc(F)c(F)c2)nn1-c1cc(C)nc(C)c1 [E132] | 0.24 |  | 2 | 180.6 |
| CCc1cc(-n2nc(Nc3cc(OC)cc(C(F)(F)F)c3)nc2C[C@H](C)O)ccn1 [E133] | 0.363 |  | 4 | 156.2 |
| CC[C@H](O)Cc1nc(Nc2ccc(F)c(F)c2)nn1-c1cccc(OC)c1 [E149] | 1.38 |  |  | 144.1 |
| Cc1cc(-n2nc(Nc3ccc(F)c(F)c3F)nc2C[C@H](C)O)cc(C)n1 [E189, (alphaS)-1-(2,6-dimethyl-4-pyridinyl)-alpha-methyl-3-[(2,3,4-trifluorophenyl)amino]-1H-1,2,4-triazole-5-ethanol] | 0.631 |  | 2 | 138 |
| CNC(=O)CCc1nc(Nc2ccc(F)c(C(F)(F)F)c2)nn1-c1cccc(OC)c1 [E42] | 2.75 |  |  | 170.9 |

| SMILES | EC50 [1] [µM] | Emax [2] [%] | Pam type [1] | melting point [°C] |
| --- | --- | --- | --- | --- |
| Cc1cc(-n2nc(Nc3ccc4c(c3)OC(F)(F)O4)nc2CC(=O)NCC2CC2)cc(C)n1 [E201] | 0.302 |  | 2 | 270.3 |
| CC[C@H](O)Cc1nc(Nc2cc(F)c(F)c(F)c2)nn1-c1cc(C)nc(C)c1 [E188, (alphaS)-1-(2,6-dimethyl-4-pyridinyl)-alpha-ethyl-3-[(3,4,5-trifluorophenyl)amino]-1H-1,2,4-triazole-5-ethanol] | 0.224 |  | 2 | 176.6 |
| CCNC(=O)Cc1nc(Nc2cccc(Cl)c2F)nn1-c1cc(C)nc(C)c1 [E153, 3-[(3-chloro-2-fluorophenyl)amino]-1-(2,6-dimethyl-4-pyridinyl)-N-ethyl-1H-1,2,4-triazole-5-acetamide] | 0.562 |  | 2 | 231.4 |
| Cc1cc(-n2nc(Nc3ccc(F)c(C(F)(F)F)c3)nc2CC(=O)NC2CC2)cc(C)n1 [E226] | 0.12 | 711 | 1 |  |
| Cc1cc(-n2nc(Nc3cc(F)c(F)c(F)c3)nc2C[C@H](C)O)ccn1 [E207] | 1.32 |  | 2 | 200.2 |
| Cc1cc(-n2nc(Nc3cccc(C(F)(F)F)c3)nc2CC(=O)NC2CCC2)cc(C)n1 [E174] | 0.162 |  | 2 | 276.3 |
| OCCCc1nc(Nc2ccc(F)c(C(F)(F)F)c2)nn1-c1ccncc1Cl [E14] | 3.98 |  |  | 152.9 |
| C[C@H](O)Cc1nc(Nc2ccc(F)c(C(F)(F)F)c2)nn1-c1ccc(F)cc1 [E20] | 4.47 |  |  | 170.4 |
| CNC(=O)CCc1nc(Nc2ccc(F)c(F)c2)nn1-c1ccc(OC(F)(F)F)cc1 [E47] | 1.51 | 698 |  |  |
| Cc1cc(-n2nc(Nc3cccc(Cl)c3)nc2C[C@H](C)O)ccn1 [E23] | 2.19 |  |  | 185 |
| CC[C@H](O)Cc1nc(Nc2cc(OC)cc(C(F)(F)F)c2)nn1-c1ccnc(C)c1C [E220] | 2.04 | 646 |  |  |
| CNC(=O)CCc1nc(Nc2cccc(OC(F)(F)F)c2)nn1-c1ccnc(C)c1 [E54] | 2.29 |  | 2 | 153.7 |
| C[C@H](O)Cc1nc(Nc2ccc(F)c(C(F)(F)F)c2)nn1-c1cccc(F)c1 [E18] | 3.31 |  |  | 161 |
| CNC(=O)CCc1nc(Nc2ccc(F)c(F)c2)nn1-c1ccccc1Cl [E38] | 3.09 | 253 |  |  |
| COc1cc(Nc2nc(C[C@H](C)O)n(-c3cccnc3)n2)cc(C(F)(F)F)c1 [E144] | 2.95 |  |  | 145.5 |
| CC[C@H](O)Cc1nc(Nc2ccc(OC)cc2)nn1-c1ccnc(C)c1 [E202] | 2.75 |  | 2 | 133.2 |
| Cc1cc(-n2nc(Nc3ccc4c(c3)OC(F)(F)O4)nc2CC(=O)NCC2CC2)c(C)cn1 [E161] | 1.32 |  | 2 | 227.2 |
| CC[C@H](O)Cc1nc(Nc2cc(OC)cc(C(F)(F)F)c2)nn1-c1ccc(C)nc1 [E142] | 0.182 |  | 4 | 154.7 |
| COCCCc1nc(Nc2ccc(F)c(C(F)(F)F)c2)nn1-c1ccncc1Cl [E12, 1-(3-Chloro-4-pyridinyl)-N-[4-fluoro-3-(trifluoromethyl)phenyl]-5-(3-methoxypropyl)-1H-1,2,4-triazol-3-amine] | 2.24 |  |  | 105.3 |
